For data set [1], the target named is T1, NAD-dependent protein deacylase sirtuin-5, mitochondrial (Homo sapiens, UniProt Q9NXA8). The experiment in a line: Inhibition of SIRT5 deglutarylase activity (unknown origin).
Target sequence in this assay (Q9NXA8 whole entry): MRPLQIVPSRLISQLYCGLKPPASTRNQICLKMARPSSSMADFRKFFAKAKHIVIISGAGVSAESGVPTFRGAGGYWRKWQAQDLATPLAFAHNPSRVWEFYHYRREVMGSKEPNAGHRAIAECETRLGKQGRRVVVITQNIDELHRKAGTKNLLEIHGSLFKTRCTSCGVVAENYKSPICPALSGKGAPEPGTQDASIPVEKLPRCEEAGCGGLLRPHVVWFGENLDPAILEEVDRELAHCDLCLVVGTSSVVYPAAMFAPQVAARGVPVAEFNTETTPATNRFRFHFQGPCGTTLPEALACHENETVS
Data set [2] addresses T1, NAD-dependent protein deacylase sirtuin-5, mitochondrial. The experiment in a line: Binding affinity to SIRT5 (unknown origin) assessed as desuccinylation activity by measuring inhibition constant.
Target sequence in this assay (Q9NXA8 whole entry): as above
Data set [3] has the same target. Kind of data set: Binding affinity to SIRT5 (unknown origin) assessed as deglutarylase activity by measuring inhibition constant.
Target sequence in this assay (Q9NXA8 whole entry): as above
Data set [4] has the same target. Kind of data set: Binding affinity to SIRT5 (unknown origin) assessed as desuccinylation activity by measuring dissociation constant.
Target sequence in this assay (Q9NXA8 whole entry): as above
For data set [5] the target is unchanged. Kind of data set: Inhibition of SIRT5 desuccinylase activity (unknown origin) using succinyl-lysine as substrate.
Target sequence in this assay (Q9NXA8 whole entry): as above
For data set [6] the target is unchanged. Kind of data set: Inhibition of human recombinant SIRT5 using fluorogenic Benzyl-Lys(Succinyl)-AMC as substrate incubated for 2 hrs measured by fluoroscence based microplate reader method.
Target sequence in this assay (Q9NXA8 whole entry): as above
The test system of a further data set is OCI-AML2. The experiment in a line: cells. Conditions: Homo sapiens.
The subject of the next data set is SKM-1. Kind of data set: cells. As to conditions: Homo sapiens.
In data set [7] the target is T2, NAD-dependent protein deacetylase sirtuin-1 (Homo sapiens) (UniProt Q96EB6).
T2 sequence (whole entry): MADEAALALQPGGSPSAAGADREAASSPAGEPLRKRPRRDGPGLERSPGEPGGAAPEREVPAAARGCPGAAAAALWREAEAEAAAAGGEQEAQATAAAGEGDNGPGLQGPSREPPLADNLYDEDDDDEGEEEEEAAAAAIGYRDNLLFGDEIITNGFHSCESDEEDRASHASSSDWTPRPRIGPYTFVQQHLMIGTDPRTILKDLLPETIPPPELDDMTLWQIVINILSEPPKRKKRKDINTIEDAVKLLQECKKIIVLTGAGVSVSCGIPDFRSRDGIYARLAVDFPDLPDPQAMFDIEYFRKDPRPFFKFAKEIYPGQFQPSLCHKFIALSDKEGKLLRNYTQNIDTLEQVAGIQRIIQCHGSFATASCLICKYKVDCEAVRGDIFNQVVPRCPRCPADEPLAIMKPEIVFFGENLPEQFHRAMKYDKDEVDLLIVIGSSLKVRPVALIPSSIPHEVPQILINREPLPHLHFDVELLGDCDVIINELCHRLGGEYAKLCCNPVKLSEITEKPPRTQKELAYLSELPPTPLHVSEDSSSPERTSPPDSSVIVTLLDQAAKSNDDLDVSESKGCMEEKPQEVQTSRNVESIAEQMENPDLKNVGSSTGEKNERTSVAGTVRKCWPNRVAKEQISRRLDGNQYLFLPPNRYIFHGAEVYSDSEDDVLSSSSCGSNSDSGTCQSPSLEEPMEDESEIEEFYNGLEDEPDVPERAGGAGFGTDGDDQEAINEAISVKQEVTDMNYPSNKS
The experiment in a line: Inhibition of SIRT1 (unknown origin) at 1 uM relative to control.

A further data set concerns HEK-293T. The experiment in a line: Cytotoxicity against human HEK293T cells at 100 uM relative to control. Format: toxicity, cell-based.
The next data set relates to MOLM-13. The experiment in a line: Cytotoxicity against human MOLM-13 cells. Format: functional, cell-based.
Data set [8] has as its target T1, NAD-dependent protein deacylase sirtuin-5, mitochondrial. Kind of data set: Inhibition of SIRT5 (unknown origin) at 50 uM incubated for 15 mins by fluorometric assay relative to control.
Target sequence in this assay (Q9NXA8 37-310 limits assumed): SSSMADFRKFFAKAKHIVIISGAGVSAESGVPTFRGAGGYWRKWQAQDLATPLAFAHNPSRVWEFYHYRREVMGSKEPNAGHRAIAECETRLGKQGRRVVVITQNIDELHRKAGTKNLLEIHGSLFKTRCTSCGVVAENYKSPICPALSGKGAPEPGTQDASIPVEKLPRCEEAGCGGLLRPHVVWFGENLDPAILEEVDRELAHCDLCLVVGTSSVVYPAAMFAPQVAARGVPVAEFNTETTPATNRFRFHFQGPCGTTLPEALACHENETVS
Data set [9] addresses T3, NAD-dependent protein deacetylase sirtuin-3, mitochondrial (Homo sapiens) (UniProt Q9NTG7).
T3 sequence (whole entry): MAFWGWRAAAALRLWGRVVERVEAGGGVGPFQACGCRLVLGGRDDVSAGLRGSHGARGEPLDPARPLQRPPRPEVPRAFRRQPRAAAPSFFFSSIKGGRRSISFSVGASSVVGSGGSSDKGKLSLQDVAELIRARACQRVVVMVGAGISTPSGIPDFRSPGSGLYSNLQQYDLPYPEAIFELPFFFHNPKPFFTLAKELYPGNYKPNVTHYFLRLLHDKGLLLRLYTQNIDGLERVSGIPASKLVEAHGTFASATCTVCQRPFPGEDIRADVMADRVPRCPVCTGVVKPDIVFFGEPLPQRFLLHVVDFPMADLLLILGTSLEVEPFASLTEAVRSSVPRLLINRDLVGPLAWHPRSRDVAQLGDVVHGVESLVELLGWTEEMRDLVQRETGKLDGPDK
The experiment in a line: Inhibition of SIRT3 (unknown origin) at 50 uM incubated for 15 mins by fluorometric assay relative to control.

Structures are written as SMILES. *1 amine or outer side, *2 acyl side, *3 side chain or, on linkers, in order; H or OH if unused. Where a SMILES comes first, the peptide text is derived from it. Side-chain parts run from the residue outwards. The star is where a group is joined. ξ: configuration not given here. Succinyl(3ξ-Ph) = O=C(O)C(CC(=O)*)c1ccccc1; βAsp = O=C(O)[C@H](CC(=O)[*:2])N[*:1]; X4 = CC(=O)SC(CC(=O)*)C(=O)O; X3 = CCCCC(CC(=O)*)C(=O)O; Cbz = O=C(OCc1ccccc1)*; Bz = O=C(c1ccccc1)*

Description for OCI-AML2: Cytotoxicity against human OCI-AML2 cells
Description for SKM-1: Cytotoxicity against human SKM-1 cells

With `O=C(O)CCNC(=S)NCCCC[C@H](NS(=O)(=O)c1cccc(F)c1)C(=O)N[C@@H](Cc1c[nH]c2ccccc12)C(=O)NC1CCCC1`, in [1], the IC50 is 0.23 µM.
With `CC(=O)SC(CC(=O)NCCCC[C@H](NC(=O)[C@H](CC(C)C)NC(=O)[C@@H](NC(=O)CNC(=O)c1ccccc1)C(C)C)C(=O)N[C@@H](CCC(=O)O)C(=O)N[C@@H](Cc1ccc(O)cc1)C(=O)NCC(=O)N[C@H](C(N)=O)C(C)C)C(=O)O` (stereo partly specified) (Bz-GVLK(X4)EYGV-NH2), the inhibition constant Ki in [2] worked out at 10.6 µM.
As to `O=C(NC1CCC1)[C@H](Cc1c[nH]c2ccccc12)NC(=O)[C@H](CCCCNC(=S)NCCc1nnn[nH]1)NS(=O)(=O)c1cccc(F)c1`, the Ki in [3] stood at 0.0005 µM. In data set [1], this compound came in with an IC50 of at most 0.05 µM.
In data set [1], `O=C(NC1CCC1)[C@H](Cc1c[nH]c2ccccc12)NC(=O)[C@H](CCCCNC(=S)NCCc1noc(=S)[nH]1)NS(=O)(=O)c1cccc(F)c1` came in with a half-maximal inhibitory concentration (IC50) of 0.9 µM.
Regarding `CC(C)C[C@H](NC(=O)[C@@H](NC(=O)CNC(=O)c1ccccc1)C(C)C)C(=O)N[C@@H](CCCCNC(=O)C[C@H](NC(=O)OCc1ccccc1)C(=O)O)C(=O)N[C@@H](CCC(=O)O)C(=O)N[C@@H](Cc1ccc(O)cc1)C(=O)NCC(=O)N[C@H](C(N)=O)C(C)C` (Bz-GVLK([βAsp-Cbz])EYGV-NH2), the Ki in data set [2] is 38.1 µM. The dissociation constant (Kd) in data set [4] was 5.78 µM.
For the compound `CCCCC(CC(=O)NCCCC[C@H](NC(=O)[C@H](CC(C)C)NC(=O)[C@@H](NC(=O)CNC(=O)c1ccccc1)C(C)C)C(=O)N[C@@H](CCC(=O)O)C(=O)N[C@@H](Cc1ccc(O)cc1)C(=O)NCC(=O)N[C@H](C(N)=O)C(C)C)C(=O)O` (stereo partly specified) (Bz-GVLK(X3)EYGV-NH2), the Ki in data set [2] was 17.2 µM.
For `CC(C)C[C@H](NC(=O)[C@@H](NC(=O)CNC(=O)c1ccccc1)C(C)C)C(=O)N[C@@H](CCCCNC(=O)CC(C(=O)O)c1ccccc1)C(=O)N[C@@H](CCC(=O)O)C(=O)N[C@@H](Cc1ccc(O)cc1)C(=O)NCC(=O)N[C@H](C(N)=O)C(C)C` (stereo partly specified) (Bz-GVLK(Succinyl(3ξ-Ph))EYGV-NH2), the inhibitory constant (Ki) in data set [2] is 100 µM. In addition, the dissociation constant Kd in data set [4] worked out at 8.2 µM.
`CC(=O)NCCCC[C@H](NC(=O)[C@H](CCCCNC(=S)NCCC(=O)O)NC(=O)C(CCCNC(=N)N)NC(C)=O)C(N)=O` (stereo partly specified) came in with an IC50 in data set [5] of 93.1 µM.
As to `N=C(N)NCCC[C@@H]1NC(=O)CCCCCCC(=O)NCCCC[C@@H](C(N)=O)NC(=O)[C@H](CCCCNC(=S)NCCC(=O)O)NC1=O`, the midpoint of inhibition in [5], the IC50, lay at 2.2 µM.
Turning to `Cc1ccc(NC(=O)/C(C#N)=C/c2ccc(-c3ccc(C(=O)O)cc3)o2)cc1C`, the half-inhibitory concentration (IC50) in [6] amounted to 22.7 µM.
Regarding `CC(C)C(OC(=O)C(C)(C)C)n1nnnc1CCCNC(=S)NCCCC[C@H](NS(=O)(=O)c1cccc(F)c1)C(=O)N[C@@H](Cc1c[nH]c2ccccc12)C(=O)NC1CCC1` (stereo partly specified), the 50% inhibitory concentration (IC50) in the data set on OCI-AML2 is 20 µM; in the data set with SKM-1, 9 µM; with MOLM-13 it was 24 µM. Further, in data set [7], the inhibition amounted to 76%. Further, the Activity in the data set with HEK-293T was 35%.
As to `Cc1cc(C)cc(NC(=O)/C(C#N)=C/c2ccc(-c3ccc(C(=O)O)cc3)o2)c1`, the IC50 in [6] was determined as 37.9 µM.
On to `O=C(CC[C@H](NC(=O)OCc1ccccc1)C(=O)O)NCCCC[C@H](NC(=O)OCc1ccccc1)C(=O)Nc1ccccc1`, for which the inhibition is 42% in data set [8] and 8% in data set [9].

In general, IC50 refers to the concentration at which inhibition is half-maximal. One may read the Ki as a measure of affinity in units of concentration, obtained from inhibition or displacement. Usually Kd stands for a measure of binding affinity in units of concentration. As usually defined, the inhibition is the share of the control response that was lost under treatment. The low end stands for a response near the control, the high end for a response far below the control.

The values are drawn from ChEMBL document CHEMBL5137064, “Therapeutic Potential and Activity Modulation of the Protein Lysine Deacylase Sirtuin 5” (J Med Chem, 2022).
